Reference: patent EP2842965A1, “Neuromedin U analogs comprising serum albumin binding amino acid residue” (Gubra ApS, priority 2013, dated 2015)
Starred links: 1 amine or outer side, 2 acyl side, 3 side chain; linkers in the order of their positions; H or OH if unused. Residues, ends and D or L forms follow the SMILES beside them. Groups on a side chain read outwards from the residue. *: point of attachment. γGlu = O=C(O)[C@H](CCC(=O)[*:2])N[*:1]; Palmitoyl = CCCCCCCCCCCCCCCC(=O)*

Assay: In vivo acute/dose response study of food intake in the HM2 system after SC dosing
Details: 6 hours post dosing, male NMRI mice
Description: Animals: A total of seventy two (72) male NMRI mice 6-7 weeks old (approx. 25 g BW) at the time of arrival were obtained from Taconic (Denmark) and transferred to the Gubra test stables. Upon arrival the animals will be transferred into the HM2 cages and housed in groups of four. The animal room environment were controlled (targeted ranges: temperature 22 ± 2°C; relative humidity 50 ± 10%; light/dark cycle: 12 hours light, 12 hours dark, lights on from 6 AM to 6 PM. […] have ad libitum access to Altromin (Brogaarden, Denmark) and tap water.
Run-in period: Mice arrived at day -7. A minimum of 5-7 days of habituation to the system was allowed before study start. During these days, animals were handled daily to accustom them to the experimental paradigm.
Runs in the HM2 system: In total five runs were performed in the HM2 system. There were at least 4 days of washout between each run.
Acute effect of lipidated analogues: Mice were re-randomized and the acute effects of the lipidated compounds were tested in an acute setting. Mice were dosed in doses equimolar to the concentration of NMU found to be semi-efficacious.
Dose response study: Different doses of the analogues were tested in order to establish a dose response relationship. Mice were re-randomized and four different doses of the five lipidated analogues were tested over two different runs in the HM2 system and compared with NMU at […] and liraglutide at 0.05 µmol/kg.
Randomization and experimentation: Animals were randomized according to body weight the day of dosing and stratified into the following experimental groups based on mean cage weight (n=4-8): • Pilot (PD) study run 1 (dose finding of NMU): • 1: Vehicle (0.9% NaCl, pH ∼ 4.0 and 0.1% BSA) (n=4) • 2: Native human Neuromedin U (NMU-25), sc, 1 mg/kg (n=4) • 3: Native human Neuromedin U (NMU-25), sc, 3 mg/kg (n=4) • 4: Native human Neuromedin U (NMU-25), sc, 10 mg/kg (n=4) • 5: PYY3-36, sc 1 mg/kg (n=4) • Pilot (PD) study run 2 (dose finding of NMU): • 1: Vehicle (0.9% NaCl, pH ∼ 4.0 and 0.1% BSA) (n=4) • 2: Native human Neuromedin U (NMU-25), sc, 1 mg/kg (n=4) • 3: Native human Neuromedin U (NMU-25), sc, 3 mg/kg (n=4) • Acute effects of lipidated analogues: • 1: Vehicle (PBS + 0.1% BSA+ 5.4% DMSO) SC • 2: Liraglutide 0.2 mg/kg, sc, 0.05 pmol/kg (n=8) • 3: Human neuromedin U 25 (NMU), sc, 1 µmol/kg (n=8) • 5: SEQ ID NO 17, sc, 1 pmol/kg (n=8) • 6: SEQ ID NO 14, sc, 1 pmol/kg (n=8) • 7: SEQ ID NO 11, sc, 1 pmol/kg (n=8) • 8: SEQ ID NO 8, sc, 1 pmol/kg (n=8) • 9: SEQ ID NO 5, sc, 1 pmol/kg (n=8) • Dose response study run 1 • 1: Vehicle (0.9% NaCl, pH ∼ 4.1 and 0.1% BSA) (n=6) • 2: Liraglutide 0.2 mg/kg, sc, 0.05 pmol/kg (n=4) • 3: Human neuromedin U 25 (NMU), sc, 1 µmol/kg (n=5) • 8: SEQ ID NO 17, sc, 1 pmol/kg (n=4) • 9: SEQ ID NO 17, sc, 0.3 pmol/kg (n=5) • 10: SEQ ID NO 17, sc, 0.1 µmol/kg (n=5) • 11: SEQ ID NO 17, sc, 0.03 pmol/kg (n=5) • 12: SEQ ID NO 14, sc, 1 pmol/kg (n=4) • 13: SEQ ID NO 14, sc, 0.3 pmol/kg (n=5) • 14: SEQ ID NO 14, sc, 0.1 pmol/kg (n=5) • 15: SEQ ID NO 14, sc, 0.03 pmol/kg (n=5) • Dose response study run 2 • 1: Vehicle (0.9%NaCl, pH ∼ 4.0 and 0.1% BSA) (n=5) • 2: Liraglutide 0.2 mg/kg, sc, 0.05 pmol/kg (n=4) • 3: Human neuromedin U 25 (NMU), sc, 1 µmol/kg (n=4) • 4: SEQ ID NO 11, sc, 1 pmol/kg (n=4) • 5: SEQ ID NO 11, sc, 0.3 pmol/kg (n=5) • 6: SEQ ID NO 11, sc, 0.1 pmol/kg (n=5) • 7: SEQ ID NO 11, sc, 0.03 pmol/kg (n=5) • 8: SEQ ID NO 8, sc, 1 pmol/kg (n=4) • 9: SEQ ID NO 8, sc, 0.3 pmol/kg (n=5) • 10: SEQ ID NO 8, sc, 0.1 pmol/kg (n=5) • 11: SEQ ID NO 8, sc, 0.03 pmol/kg (n=5) • 12: SEQ ID NO 5, sc, 1 pmol/kg (n=4) • 13: SEQ ID NO 5, sc, 0.3 pmol/kg (n=5) • 14: SEQ ID NO 5, sc, 0.1 µmol/kg (n=5) • 15: SEQ ID NO 5, sc, 0.03 pmol/kg (n=5) Dosing: All dosing took place just prior to lights out in the afternoon. Doses was administered subcutaneously (sc) (dose volume 10 ml/kg), alternating the injection site from the left to the right side of the lower back and inguinal region, respectively. […]

| SMILES | Percent food intake reduction 6 hours post SC dosing (0.03 µmol/kg) [%] | Percent food intake reduction 6 hours post SC dosing (0.1 µmol/kg) [%] | Percent food intake reduction 6 hours post SC dosing (0.3 µmol/kg) [%] | Percent food intake reduction 6 hours post SC dosing (1.0 µmol/kg) [%] |
| --- | --- | --- | --- | --- |
| CCCCCCCCCCCCCCCC(=O)N[C@@H](CCC(=O)NCCCC[C@H](NC(=O)[C@H](C)NC(=O)[C@H](Cc1ccccc1)NC(=O)[C@@H]1CCCN1C(=O)[C@H](CO)NC(=O)[C@H](CCC(N)=O)NC(=O)[C@H](Cc1ccccc1)NC(=O)[C@H](CCC(=O)O)NC(=O)[C@H](CCC(=O)O)NC(=O)[C@H](CC(=O)O)NC(=O)[C@@H](NC(=O)[C@H](CCCNC(=N)N)NC(=O)[C@@H](N)Cc1ccccc1)C(C)C)C(=O)N[C@@H](CCC(N)=O)C(=O)N[C@@H](CO)C(=O)N[C@@H](CCCNC(=N)N)C(=O)NCC(=O)N[C@@H](Cc1ccc(O)cc1)C(=O)N[C@@H](Cc1ccccc1)C(=O)N[C@@H](CC(C)C)C(=O)N[C@@H](Cc1ccccc1)C(=O)N[C@@H](CCCNC(=N)N)C(=O)N1CCC[C@H]1C(=O)N[C@@H](CCCNC(=N)N)C(=O)N[C@@H](CC(N)=O)C(N)=O)C(=O)O [SEQ ID NO 8] (H-FRVDEEFQSPFAK([γGlu-Palmitoyl])QSRGYFLFRPRN-NH2) | 25 | 55 | 46 | 90 |
| CCCCCCCCCCCCCCCC(=O)N[C@@H](CCC(=O)NCCCC[C@H](NC(=O)[C@H](CCC(N)=O)NC(=O)[C@H](CO)NC(=O)[C@H](C)NC(=O)[C@H](Cc1ccccc1)NC(=O)[C@@H]1CCCN1C(=O)[C@H](CO)NC(=O)[C@H](CCC(N)=O)NC(=O)[C@H](Cc1ccccc1)NC(=O)[C@H](CCC(=O)O)NC(=O)[C@H](CCC(=O)O)NC(=O)[C@H](CC(=O)O)NC(=O)[C@@H](NC(=O)[C@H](CCCNC(=N)N)NC(=O)[C@@H](N)Cc1ccccc1)C(C)C)C(=O)N[C@@H](CCCNC(=N)N)C(=O)NCC(=O)N[C@@H](Cc1ccc(O)cc1)C(=O)N[C@@H](Cc1ccccc1)C(=O)N[C@@H](CC(C)C)C(=O)N[C@@H](Cc1ccccc1)C(=O)N[C@@H](CCCNC(=N)N)C(=O)N1CCC[C@H]1C(=O)N[C@@H](CCCNC(=N)N)C(=O)N[C@@H](CC(N)=O)C(N)=O)C(=O)O [SEQ ID NO 5] (H-FRVDEEFQSPFASQK([γGlu-Palmitoyl])RGYFLFRPRN-NH2) | 41 | 41 | 61 | 76 |
| CCCCCCCCCCCCCCCC(=O)N[C@@H](CCC(=O)NCCCC[C@H](NC(=O)[C@@H](NC(=O)[C@H](CCCNC(=N)N)NC(=O)[C@@H](N)Cc1ccccc1)C(C)C)C(=O)N[C@@H](CCC(=O)O)C(=O)N[C@@H](CCC(=O)O)C(=O)N[C@@H](Cc1ccccc1)C(=O)N[C@@H](CCC(N)=O)C(=O)N[C@@H](CO)C(=O)N1CCC[C@H]1C(=O)N[C@@H](Cc1ccccc1)C(=O)N[C@@H](C)C(=O)N[C@@H](CO)C(=O)N[C@@H](CCC(N)=O)C(=O)N[C@@H](CO)C(=O)N[C@@H](CCCNC(=N)N)C(=O)NCC(=O)N[C@@H](Cc1ccc(O)cc1)C(=O)N[C@@H](Cc1ccccc1)C(=O)N[C@@H](CC(C)C)C(=O)N[C@@H](Cc1ccccc1)C(=O)N[C@@H](CCCNC(=N)N)C(=O)N1CCC[C@H]1C(=O)N[C@@H](CCCNC(=N)N)C(=O)N[C@@H](CC(N)=O)C(N)=O)C(=O)O [SEQ ID NO 17] (H-FRVK([γGlu-Palmitoyl])EEFQSPFASQSRGYFLFRPRN-NH2) | 20 | 43 | 64 | 78 |
| CCCCCCCCCCCCCCCC(=O)N[C@@H](CCC(=O)NCCCC[C@H](NC(=O)[C@H](CCC(=O)O)NC(=O)[C@H](CC(=O)O)NC(=O)[C@@H](NC(=O)[C@H](CCCNC(=N)N)NC(=O)[C@@H](N)Cc1ccccc1)C(C)C)C(=O)N[C@@H](Cc1ccccc1)C(=O)N[C@@H](CCC(N)=O)C(=O)N[C@@H](CO)C(=O)N1CCC[C@H]1C(=O)N[C@@H](Cc1ccccc1)C(=O)N[C@@H](C)C(=O)N[C@@H](CO)C(=O)N[C@@H](CCC(N)=O)C(=O)N[C@@H](CO)C(=O)N[C@@H](CCCNC(=N)N)C(=O)NCC(=O)N[C@@H](Cc1ccc(O)cc1)C(=O)N[C@@H](Cc1ccccc1)C(=O)N[C@@H](CC(C)C)C(=O)N[C@@H](Cc1ccccc1)C(=O)N[C@@H](CCCNC(=N)N)C(=O)N1CCC[C@H]1C(=O)N[C@@H](CCCNC(=N)N)C(=O)N[C@@H](CC(N)=O)C(N)=O)C(=O)O [SEQ ID NO 14] (H-FRVDEK([γGlu-Palmitoyl])FQSPFASQSRGYFLFRPRN-NH2) | 5 | 31 | 79 | 89 |
